Reference: US20160326142A1, “PYRAZOLE CARBOXAMIDE COMPOUNDS, COMPOSITIONS AND METHODS OF USE” (Genentech, Inc., priority 2012, published 2016)

Each compound was assayed against T1, ITK (Homo sapiens, UniProt Q08881) (assay: ITK enzyme assay (Caliper or LCMS peptide phosphorylation)). Conditions: purified ITK (Invitrogen PV3875), 20 μM ATP, Ki by Morrison's quadratic equation.
T1 construct: purchased Invitrogen PV3875
T1 sequence (Q08881 1-620): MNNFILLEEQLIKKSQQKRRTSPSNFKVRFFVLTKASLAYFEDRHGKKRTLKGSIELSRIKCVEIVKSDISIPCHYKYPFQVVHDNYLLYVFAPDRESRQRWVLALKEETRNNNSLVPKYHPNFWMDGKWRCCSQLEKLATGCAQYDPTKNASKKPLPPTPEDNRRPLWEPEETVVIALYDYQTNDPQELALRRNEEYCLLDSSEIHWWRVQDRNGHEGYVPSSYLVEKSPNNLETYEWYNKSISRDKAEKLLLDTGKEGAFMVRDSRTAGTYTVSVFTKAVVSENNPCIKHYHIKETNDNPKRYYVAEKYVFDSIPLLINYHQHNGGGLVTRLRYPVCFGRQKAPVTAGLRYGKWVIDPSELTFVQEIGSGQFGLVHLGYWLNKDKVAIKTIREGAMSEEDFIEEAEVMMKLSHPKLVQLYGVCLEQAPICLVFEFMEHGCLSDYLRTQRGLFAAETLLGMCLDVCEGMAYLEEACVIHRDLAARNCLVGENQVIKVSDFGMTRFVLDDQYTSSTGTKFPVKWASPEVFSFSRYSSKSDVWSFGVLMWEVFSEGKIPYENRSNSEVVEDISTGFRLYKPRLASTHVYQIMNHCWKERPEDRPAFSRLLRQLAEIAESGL
Format: biochemical
Summary of the method: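 Purified human ITK peptide phosphorylation, quenched with EDTA (50 mM final) for Caliper LabChip separation or TCA (5% v/v final) for UPLC-MS/MS MRM quantification. Ki derived via Morrison tight-binding equation, corrected for competitive inhibition using ATP concentration relative to Km,app.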

| Structure (SMILES) | Ki [nM] |
| --- | --- |
| CC1(C)CCc2c(C(=O)Nc3cnn(C(CCN4CC(F)(F)C4)c4ccccc4)c3)n[nH]c2C1 (single isomer, unassigned) [Example 121b, N-(1-(3-(3,3-difluoroazetidin-1-yl)-1-phenylpropyl)-1H-pyrazol-4-yl)-6,6-dimethyl-4,5,6,7-tetrahydro-1H-indazole-3-carboxamide] | 1 |
| CC1(C)CCc2c(C(=O)Nc3cnn(C(c4cccc(S(C)(=O)=O)c4)C4CC4)c3)n[nH]c2C1 (single isomer, unassigned) [Example 125b, N-(1-(cyclopropyl(3-(methylsulfonyl)phenyl)methyl)-1H-pyrazol-4-yl)-6,6-dimethyl-4,5,6,7-tetrahydro-1H-indazole-3-carboxamide] | 10 |
| CC1(C)CCc2c(C(=O)Nc3cnn(C(c4cccc(S(C)(=O)=O)c4)C4CCOC4)c3)n[nH]c2C1 (single isomer, unassigned) [Example 126b, 6,6-dimethyl-N-(1-((3-(methylsulfonyl)phenyl)(tetrahydrofuran-3-yl)methyl)-1H-pyrazol-4-yl)-4,5,6,7-tetrahydro-1H-indazole-3-carboxamide] | 0.1 |
| CC1(C)CCc2c(C(=O)Nc3cnn(C(c4cccc(S(C)(=O)=O)c4)C4CCOC4)c3)n[nH]c2C1 (single isomer, unassigned) [Example 126c, 6,6-dimethyl-N-(1-((3-(methylsulfonyl)phenyl)(tetrahydrofuran-3-yl)methyl)-1H-pyrazol-4-yl)-4,5,6,7-tetrahydro-1H-indazole-3-carboxamide] | 4 |
| CC1(C)CCc2c(C(=O)Nc3cnn(C(c4ccccc4)C4CNCCS4(=O)=O)c3)n[nH]c2C1 (single isomer, unassigned) [Example 127a] | 0.2 |
| CN1CC(C(c2ccccc2)n2cc(NC(=O)c3n[nH]c4c3CCC(C)(C)C4)cn2)CN(C)C1=O (single isomer, unassigned) [Example 129a, N-(1-((1,3-dimethyl-2-oxohexahydropyrimidin-5-yl)(phenyl)methyl)-1H-pyrazol-4-yl)-6,6-di methyl-4,5,6,7-tetrahydro-1H-indazole-3-carboxamide] | 0.7 |
| CN1CC(C(c2ccccc2)n2cc(NC(=O)c3n[nH]c4c3CCC(C)(C)C4)cn2)CN(C)C1=O (single isomer, unassigned) [Example 129b, N-(1-((1,3-dimethyl-2-oxohexahydropyrimidin-5-yl)(phenyl)methyl)-1H-pyrazol-4-yl)-6,6-di methyl-4,5,6,7-tetrahydro-1H-indazole-3-carboxamide] | 6 |
| C#CC1(C)CCc2c(C(=O)Nc3cnn(Cc4ccccc4)c3)n[nH]c2C1 (single isomer, unassigned) [Example 130a, N-(1-benzyl-1H-pyrazol-4-yl)-6-ethynyl-6-methyl-4,5,6,7-tetrahydro-1H-indazole-3-carboxamide] | 25 |
| CN1CCN(CC(c2ccccc2)n2cc(NC(=O)c3n[nH]c4c3CCC(C)(C)C4)cn2)C1=O (single isomer, unassigned) [Example 131b, 6,6-dimethyl-N-(1-(2-(3-methyl-2-oxoimidazolidin-1-yl)-1-phenylethyl)-1H-pyrazol-4-yl)-4,5,6,7-tetrahydro-1H-indazole-3-carboxamide] | 11 |
| CC1(C)CCc2c(C(=O)Nc3cnn(C4COCC4c4ccccc4)c3)n[nH]c2C1 (single isomer, unassigned) [Example 132a, 6,6-dimethyl-N-(1-(4-phenyltetrahydrofuran-3-yl)-1H-pyrazol-4-yl)-4,5,6,7-tetrahydro-1H-indazole-3-carboxamide] | 77 |
| CC1(C)CCc2c(C(=O)Nc3cnn(C(c4ccnc(N)c4)C4CCOCC4)c3)n[nH]c2C1 (single isomer, unassigned) [Example 133a, N-(1-((2-aminopyridin-4-yl)(tetrahydro-2H-pyran-4-yl)methyl)-1H-pyrazol-4-yl)-6,6-dimethyl-4,5,6,7-tetrahydro-1H-indazole-3-carboxamide] | 0.4 |
| CC1(C)CCc2c(C(=O)Nc3cnn(C(c4ccnc(N)c4)C4CCOCC4)c3)n[nH]c2C1 (single isomer, unassigned) [Example 133b, N-(1-((2-aminopyridin-4-yl)(tetrahydro-2H-pyran-4-yl)methyl)-1H-pyrazol-4-yl)-6,6-dimethyl-4,5,6,7-tetrahydro-1H-indazole-3-carboxamide] | 2 |
| CC1(C)CCc2c(C(=O)Nc3cnn([C@@H]4COC[C@H]4c4ccccc4)c3)n[nH]c2C1 (single isomer, unassigned) [Example 135a, 6,6-dimethyl-N-(1-(4-phenyltetrahydrofuran-3-yl)-1H-pyrazol-4-yl)-4,5,6,7-tetrahydro-1H-indazole-3-carboxamide] | 130 |
| CC1(C)CCc2c(C(=O)Nc3cnn([C@@H]4COC[C@H]4c4ccccc4)c3)n[nH]c2C1 (single isomer, unassigned) [Example 135b, 6,6-dimethyl-N-(1-(4-phenyltetrahydrofuran-3-yl)-1H-pyrazol-4-yl)-4,5,6,7-tetrahydro-1H-indazole-3-carboxamide] | 14 |
| CC1CC(C(c2ccccc2)n2cc(NC(=O)c3n[nH]c4c3CCC(C)(C)C4)cn2)CCS1(=O)=O (single isomer, unassigned) [Example 139a, 6,6-dimethyl-N-(1-((2-methyl-1,1-dioxidotetrahydro-2H-thiopyran-4-yl)(phenyl)methyl)-1H-pyrazol-4-yl)-4,5,6,7-tetrahydro-1H-indazole-3-carboxamide] | 1 |
| CC1CC(C(c2ccccc2)n2cc(NC(=O)c3n[nH]c4c3CCC(C)(C)C4)cn2)CCS1(=O)=O (single isomer, unassigned) [Example 139c, 6,6-dimethyl-N-(1-((2-methyl-1,1-dioxidotetrahydro-2H-thiopyran-4-yl)(phenyl)methyl)-1H-pyrazol-4-yl)-4,5,6,7-tetrahydro-1H-indazole-3-carboxamide] | 12 |

More lines, in order of falling Ki, values ahead:

| Ki [nM] | Structure (SMILES) |
| --- | --- |
| 88 | CN1CCC2(CCc3c(C(=O)Nc4cnn(Cc5ccccc5)c4)n[nH]c3C2)C1=O (single isomer, unassigned) [Example 123a, N-(1-benzyl-1H-pyrazol-4-yl)-1′-methyl-2′-oxo-1,4,5,7-tetrahydrospiro[indazole-6,3′-pyrrolidine]-3-carboxamide] |
| 10 | CC1(C)CCc2c(C(=O)Nc3cnn(C4COCC4c4ccccc4)c3)n[nH]c2C1 (single isomer, unassigned) [Example 132b, 6,6-dimethyl-N-(1-(4-phenyltetrahydrofuran-3-yl)-1H-pyrazol-4-yl)-4,5,6,7-tetrahydro-1H-indazole-3-carboxamide] |
| 6 | CC1(C)CCc2c(C(=O)Nc3cnn(C(c4ccccc4)C4CNCCS4(=O)=O)c3)n[nH]c2C1 (single isomer, unassigned) [Example 127b] |
| 2 | CC1(C)CCc2c(C(=O)Nc3cnn(C(c4cccc(S(C)(=O)=O)c4)C4CC4)c3)n[nH]c2C1 (single isomer, unassigned) [Example 125a, N-(1-(cyclopropyl(3-(methylsulfonyl)phenyl)methyl)-1H-pyrazol-4-yl)-6,6-dimethyl-4,5,6,7-tetrahydro-1H-indazole-3-carboxamide] |
| 2 | CC1(C)CCc2c(C(=O)Nc3cnn(C(c4cccc(S(C)(=O)=O)c4)C4CCOC4)c3)n[nH]c2C1 (single isomer, unassigned) [Example 126a, 6,6-dimethyl-N-(1-((3-(methylsulfonyl)phenyl)(tetrahydrofuran-3-yl)methyl)-1H-pyrazol-4-yl)-4,5,6,7-tetrahydro-1H-indazole-3-carboxamide] |
| 2 | C#CC1(C)CCc2c(C(=O)Nc3cnn(Cc4ccccc4)c3)n[nH]c2C1 (single isomer, unassigned) [Example 130b, N-(1-benzyl-1H-pyrazol-4-yl)-6-ethynyl-6-methyl-4,5,6,7-tetrahydro-1H-indazole-3-carboxamide] |
| 1 | CN1CCN(CC(c2ccccc2)n2cc(NC(=O)c3n[nH]c4c3CCC(C)(C)C4)cn2)C1=O (single isomer, unassigned) [Example 131a, 6,6-dimethyl-N-(1-(2-(3-methyl-2-oxoimidazolidin-1-yl)-1-phenylethyl)-1H-pyrazol-4-yl)-4,5,6,7-tetrahydro-1H-indazole-3-carboxamide] |
| 0.7 | CC1CC(C(c2ccccc2)n2cc(NC(=O)c3n[nH]c4c3CCC(C)(C)C4)cn2)CCS1(=O)=O (single isomer, unassigned) [Example 139b, 6,6-dimethyl-N-(1-((2-methyl-1,1-dioxidotetrahydro-2H-thiopyran-4-yl)(phenyl)methyl)-1H-pyrazol-4-yl)-4,5,6,7-tetrahydro-1H-indazole-3-carboxamide] |
| 0.2 | CC1(C)CCc2c(C(=O)Nc3cnn(C(c4cccc(S(C)(=O)=O)c4)C4CCOC4)c3)n[nH]c2C1 (single isomer, unassigned) [Example 126d, 6,6-dimethyl-N-(1-((3-(methylsulfonyl)phenyl)(tetrahydrofuran-3-yl)methyl)-1H-pyrazol-4-yl)-4,5,6,7-tetrahydro-1H-indazole-3-carboxamide] |
